Results: patent publication US10428030B2, “Heterocycle derivatives and their use for the treatment of CNS disorders” (Trillium Therapeutics Inc., priority 2015, dated 2019)

Tests used:
MTLE mice = assay: Model of mesial temporal lobe epilepsy (mTLE), hippocampal paroxysmal discharges; assay type: in vivo, mouse; conditions: for Effect (% baseline): HPD; for Effect (% baseline) / Mean HPD Counts: mice 4 weeks after intra-hippocampal KA
Source text: The MTLE mouse model recapitulates many of the characteristics observed in human patients with temporal lobe epilepsy (TLE). The MTLE mouse is characterized by an initial neurotoxic event, a unilateral intrahippocampal injection of kainic acid (KA) into the dorsal hippocampus, which induces non-convulsive SE lasting several hours. This initial event is followed by a latent phase. Two to three weeks after KA injection, spontaneous recurrent hippocampal paroxysmal discharges (HPD) are only recorded in the epileptic hippocampus and remain stable and stereotyped for the whole life of the animal. These HPDs occur spontaneously about 30-60 times per hour when the animals are in a state of quiet wakefulness, generally last 15-20 sec and are associated with behavioral arrest and/or mild motor automatisms. Adult, male […] mice are stereotaxically injected with kainate (1 nmol in 100 nL) and implanted with 1 bipolar electrode in the dorsal hippocampus, and then allowed to recover for four weeks prior to evaluation in the screening protocol. Using a group size of 4 MTLE mice per dose of investigational compound, the compounds are typically first tested using the 6 Hz 44 mA ED50 value. […] For all acute studies, drug conditions are counter-balanced in MTLE mice over a two week period using a Latin square dosing protocol. Animals are used as their own controls. Digital EEG recordings are performed on freely moving animals for 20 minutes pre-injection (reference period) and 90 minutes post-injection. Data are analyzed for the period of 10 minutes before and 10 minutes after peak time of effect of the investigational compound, as determined from the 6 Hz 44 mA seizure test. The effects of the injected compound are compared to the reference period. Any accompanying effect on animal behavior is noted. Data are presented as the raw number of HPDs during the analyzed 20 min period (10 minutes before and 10 minutes after peak time of effect of compound) for each MTLE mouse, group mean number of HPDs, and effect on suppression as represented by percent of baseline HPD values.

male CF-1 mouse = assay: Mouse formalin test (pain); assay type: in vivo; conditions: 41 mg/kg i.p.; most pronounced in second (late) phase
Protocol: The formalin test is performed according to the method of Tjolsen et al. Pain, 1992. 51(1). An injection of 0.5% formalin (Sigma) is made into the planter region of the right hind paw of an adult (26-30 g) male CF-1 mouse. Sub-dermal formalin injection elicits a distinct behavioral profile characterized by the mouse licking the affected paw. The behavior is characteristically biphasic in nature. For example, immediately following the injection the mouse licks the paw intensely for approximately 10 min. This is referred to as phase 1 (or, the acute phase) and is followed by a brief latent period (<5 minutes) where there is little behavioral activity. A more prolonged period of about 20-30 min of activity then ensues, which constitutes phase 2 (or, the inflammatory phase). […] The cumulative length of licking for each 2-min time period is measured. […] The area under the curve (AUG) is calculated for both the acute and inflammatory phases of the licking response for individual animals in both the test and control groups. The percent of control AUG for drug-treated animal groups is determined using the Graph-Pad Prism Version 3.03. The total AUG for each phase of the test group is also calculated and converted to percentage of total AUG of control for each phase. The average and S.E.M. for both the drug treated and control percentages are calculated and tested for significant difference.

O=C1COc2cc(OCc3ccc(OC(F)F)cc3)ccc2N1 [Compound I(B)]
Effect (% baseline) (MTLE mice; after 80 mg/kg): 42.0 % baseline
Mean HPD Counts (MTLE mice; after 80 mg/kg): 7.25
Effect (% baseline) (MTLE mice; after 160 mg/kg): 17.9 % baseline
Mean HPD Counts (MTLE mice; after 160 mg/kg): 4.25
effect against spontaneous recurrent hippocampal paroxysmal discharges (HPD) (MTLE mice; dose of 125 mg/kg): effective
number of paw licks (male CF-1 mouse): significant decrease in the number of paw licks
